Common to all, as to assay: NCI tumour cell line growth inhibition, 48 h
Assay [1] has as its system DLD-1 colon.
Assay [2] has as its system DMS 114 small cell lung.
The subject of assay [3] is DMS 273 small cell lung.
The subject of assay [4] is HOP-18 NSCLC.
Assay [5] relates to KM20L2 colon.
The subject of assay [6] is M19-MEL melanoma.
Assay [7] relates to P388 leukemia.
The subject of assay [8] is SN12K1 renal.
Assay [9] has as its system XF 498 CNS.
In assay [10] the test system is LXFL 529 NSCLC.
Assay [11] has as its system RXF-631 renal.

The structures appear in SMILES notation.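 Interpolation was linear, between the two tested concentrations surrounding the appropriate level; five concentrations were tested over 48 hours in 96-well plates. GI50 marks 50% less growth. Definition used: TGI = concentration required for complete inhibition of growth.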

With `CCCCCOc1ccc(C=Nc2ccc(CCc3ccc(N=Cc4ccc(OCCCCC)cc4)cc3)cc2)cc1`, the TGI in assay [1], in [2], in assay [3], in [4], in assay [5] and in assay [6] was more than 100 µM throughout. Also, the TGI in assay [7], in assay [8] and in assay [9] was more than 100 µM in each case.

Take `CNC(C)(C)Cc1ccc(Cl)cc1`: the TGI in [1], in assay [2], in assay [5], in [10], in assay [6] and in assay [9] was more than 100 µM throughout.

Consider `c1ccc(-c2csc3c4ccccc4c4ccccc4[n+]23)cc1`, for which the TGI was 25.4 µM in assay [1]; 4.89 µM in assay [2]; 4.58 µM in [3]; 49.6 µM in assay [4]; 20.6 µM in assay [5]; 16.6 µM in [10]. For the same compound, the values for the TGI in [6] and in [9] were 4.22 µM and 5.46 µM, respectively.

In the case of `Cc1ccc(C)c(NC(=O)C(=O)C(C(=O)c2ccc3ccccc3c2)C2OC(=O)c3ccccc32)c1` (stereo unspecified), the TGI in assay [1] was 64.3 µM; in [2], 26.3 µM; in [3] it was more than 100 µM; in assay [5] it was 53.3 µM; in assay [10], 25.1 µM; in assay [6], 30.5 µM. In addition, the TGI amounted to 65.6 µM in [11] and 44 µM in assay [9].

In the case of `Cc1cc([NH-])c([NH-])cc1C.[Cl][Pt+2][Cl]`, the GI50 in [1] is 8 µM; in assay [2], 8.09 µM; in assay [4], more than 82 µM; in [5], 20.2 µM; in assay [6] it was 8.79 µM; in assay [7] it was 2.42 µM. The GI50 in [8] is 13.5 µM; in assay [9], 19.7 µM. For the same compound, the TGI in assay [1] was 28.9 µM; in [2] it was 32.3 µM; in assay [4], more than 100 µM; in assay [5], more than 81.9 µM; in assay [6], 31.2 µM; in [7], 10.2 µM. For the same compound, the TGI in [8] came to 32 µM; in [9], 46.4 µM.

In the case of `C1=C(c2ccccc2)SC(N2CCCCC2)S1` (stereo unspecified), the TGI in assay [1], in assay [2], in [3], in assay [5], in assay [10] and in [6] was more than 100 µM in each case. In assay [9], this compound showed a TGI of more than 100 µM.

As to `CCOC(=O)C(C#N)(Cc1c[nH]c2ccccc12)NC(C)=O` (stereo unspecified), the TGI in assay [1], in assay [2], in assay [3], in [5], in [10] and in assay [6] was more than 100 µM throughout.

Take `N=C1C(=N)c2ccccc2-c2ccccc21.[Cl-].[Ru+2].c1ccc(-c2ccccn2)nc1.c1ccc(-c2ccccn2)nc1`: the GI50 in assay [5], in assay [10] and in assay [6] was more than 100 µM throughout. Moreover, the TGI in [5], in [10] and in assay [6] was more than 100 µM each time.

These data come from PubChem BioAssay (NCI).
